Laboratory results: PMC12124432, “Antimicrobial Peptide‐Peptoid Macrocycles from the Polymyxin B2 Chemical Space” (Angewandte Chemie (International Ed. in English), 2025)
Bridge positions count the residues as written; N and C are the ends. Square brackets hold non-standard residues; d marks the D form. Peptide text beside a SMILES is read from it. * marks the point of attachment. N(3-phenylpropyl)Gly = O=C(O)CNCCCc1ccccc1; Gly(NCH2CH2Ph) = O=C(O)CNCCc1ccccc1; Gly(N-2-aminoethyl) = NCCNCC(=O)O; Gly(N(CH2)3NH2) = NCCCNCC(=O)O; Gly(N-cPent) = O=C(O)CNC1CCCC1; Heptanoyl = CCCCCCC(=O)*; Nphe = O=C(O)CNCc1ccccc1; Octanoyl = CCCCCCCC(=O)*; Dab = NCC[C@H](N)C(=O)O; NPrGly = CCCNCC(=O)O

Key:
[1] = Lipid vesicle (carboxyfluorescein) leakage assay; settings: 10 µg mL^−1 compound, 10 mM Tris, 107 mM NaCl, pH 7.4, leakage observed after 220 s
Description: Figure S4. Cytotoxicity of selected compounds against HK-2 cells. The cells were treated with the compound at the desired concentration for 24 h and the viability was determined with an Alamar blue assay. Data of three experiments performed in triplicates were pooled and represented as barplots.
10. Lipid Vesicle Leakage Assay
5(6)-carboxyfluorescein (CF) was purchased from Sigma Aldrich. Egg Yolk Phosphatidylcholine (EYPC), Egg Yolk Phosphatidylglycerol (EYPG) and a Mini-Extruder were purchased from Avanti Polar Lipids.
Vesicles preparation. Egg yolk PC or egg yolk PG thin lipid layers were prepared by evaporating a solution of 100 mg EYPC or EYPG in 4 mL MeOH/CHCl3 (1:1) on a rotary evaporator at room temperature and then dried in vacuo overnight. The resulting film was then hydrated with 2 mL CF buffer (50 mM CF, 10 mM TRIS, 10 mM NaCl, pH 7.4) for 30 min, subjected to freeze-thaw cycles (7×) and extrusion (15×) through a polycarbonate membrane (pore size 100 nm). Extra vesicular components were removed by gel filtration (Sephadex G-50) with 10 mM TRIS, 107 mM NaCl, pH 7.4 buffer. Final conditions: ca. 2.5 mM EYPC or EYPG; inside: 50 mM CF, 10 mM TRIS, 10 mM NaCl, pH 7.4 buffer; outside: 10 mM TRIS, […]
Vesicle leakage assay. EYPC or EYPG vesicle stock solutions (37.5 μL) were diluted to 3000 μL with a buffer (10 mM TRIS, 107 mM NaCl, pH 7.4) in a thermostated fluorescence cuvette (25 °C) and gently stirred (final lipid concentration ca. 10 μg/mL for both EYPG and EYPC).
The desired volume of peptide (1 or 20 mg/mL stock in MilliQ water) was added at t = 45 s to obtain final concentrations of 10 and 50 or 200 μg/mL, and CF efflux was monitored at λem 517 nm (λex 492 nm) as a function of time. Finally, 30 μL of 1.2% Triton X-100 was added to the cuvette (0.012% final concentration) at t = 240 s to reach the maximum intensity.
Fluorescence intensities were then normalized to the maximal emission intensity using I(t) = (It − I0)⁄(I∞ − I0) where I0 = It at peptide addition and I∞ = It at saturation of […]

P. aeruginosa PAO1 = test: DiSC3(5) inner-membrane depolarization assay; type: cell-based, Pseudomonas aeruginosa; settings: 2 µM DiSC3(5), mean ± SD, n = 3
Description: Outer Membrane (NPN) - E. coli
Figure S6. Outer membrane permeability assay with 10 μM NPN, on E. coli W3110.
13. DiSC3(5) Inner-Membrane Depolarization Assay
A single colony of P. aeruginosa PAO1 and E. coli W3110 was grown overnight with shaking […]
(150 rpm) in LB broth (5 mL) at 37 °C. 100 μL of the overnight culture was regrown in 10 […]
mL LB broth with shaking (200 rpm) to the exponential phase OD600 = 1 (10^9 CFU/mL).
Bacteria were washed once with HEPES buffer (5 mM HEPES, 5 mM glucose, pH 7.4) and […]
diluted to OD600 = 0.5. Stock solution of 10 mM of 3,3′ -Dipropylthiadicarbocyanine iodide […]
(DiSC3(5), purchased from Sigma) was prepared in DMSO. Stock solutions of 2 m g/mL of […]
the compounds were prepared in sterilized milli -Q water and diluted to the beginning […]
concentration of 128 μg/mL in 200 μL HEPES buffer. The diluted samples were added to the […]
first well of 96-well plates (black wells, flat bottom, BRAND ® GmbH Wertheim, Germany) […]
and diluted serially by 1/2. […]
DiSC3(5) in HEPES buffer. The plate was measured with a Tecan instrument Infinite M1000 […]
wavelength used was 610 nm ± 5 nm and the emission wavelength 660 nm ± 5 nm. The assay was measured in triplicate and repeated at least two times.[10,11] […]
Saturation determination. […] The fluorescence saturation of DsPMB with LPS was first determined, by titration (0.25 μM increments, up to 5 μM) of the DsPMB into a 3 μg/mL of LPS (10 mM Tris, 10 mM NaCl buffer, pH 7.4), at 37 °C. The fluorescence was recorded with a Jasco spectrofluorometer FP-8300, with the excitation at λex = 340 nm (5 nm slit width) and recorded from 420 to 650 nm. The fluorescence was recorded two minutes after each addition. Saturation was graphically determined, at a concentration of D sPMB ≈ 2.5 μM (λem = 485 nm). Each measurement was determined in triplicates.
Displacement assay. The displacement effect of the various peptides was determined by measuring the reduction of fluorescence intensity, at 37 °C. Initially, DsPMB (2.5 μM) was mixed with LPS (3 μg/mL) and let it react for 15 minutes before recording the fluorescence

SMILES | Membrane disruptive activity, fluorescein leakage from EYPG and EYPC vesicles [1] | Inner membrane depolarization (DiSC3(5)) (P. aeruginosa PAO1)
CCCCCCCC(=O)N(CCc1ccccc1)CC(=O)N[C@@H](CCCCN)C(=O)N[C@@H](CC(N)=O)C(=O)N[C@H]1CCNC(=O)[C@H](CCCCN)NC(=O)CN(CCCN)C(=O)[C@H](CCCCN)NC(=O)CN(CCC)C(=O)[C@H](CCCCN)NC1=O [EB12] (Octanoyl-[Gly(NCH2CH2Ph)]KN[Dab]K[NPrGly]K[Gly(N(CH2)3NH2)]K; lactam 4-C) | low membrane disruptive activity | induced a depolarization of the inner membrane like PMB2
CCCCCCC(=O)N[C@H](C(=O)N(CCN)CC(=O)N(CCCc1ccccc1)CC(=O)N[C@H]1CCNC(=O)[C@H](CCCCN)NC(=O)CN(CCCN)C(=O)[C@H](CCCCN)NC(=O)CNC(=O)[C@H](CCCCN)NC1=O)C(C)C [EB13] (Heptanoyl-V[Gly(N-2-aminoethyl)][N(3-phenylpropyl)Gly][Dab]KGK[Gly(N(CH2)3NH2)]K; lactam 4-C) | low membrane disruptive activity | induced a depolarization of the inner membrane like PMB2
CCCCCCCC(=O)N[C@@H](CCCCN)C(=O)N(CC(=O)N[C@@H](CCCCN)C(=O)N[C@H]1CCNC(=O)[C@H](CCCCN)NC(=O)CN(C2CCCC2)C(=O)CN(CCN)C(=O)[C@H](CCCCN)NC(=O)[C@H](CC(N)=O)NC1=O)Cc1ccccc1 [EB21] (Octanoyl-K[Nphe]K[Dab]NK[Gly(N-2-aminoethyl)][Gly(N-cPent)]K; lactam 4-C) | low membrane disruptive activity | induced a depolarization of the inner membrane like PMB2
